# Measurements: patent US20100255054A1, “PHARMACEUTICAL COMPOSITION FOR TREATMENT AND PREVENTION OF RESTENOSIS” (priority 2006, published 2010)
# What was measured:
# [1] = test system: vascular smooth muscle cells; assay: Vascular smooth muscle cell proliferation (PDGF-induced, WST cell counting kit); type: cell-based, rat
# Experimental: For vascular smooth muscle cell cultivation, vascular smooth muscle cells were isolated from rat aorta and they were primarily cultured. The vascular smooth muscle cells were cultured and grown in a culture solution containing 20% fetal bovine serum (FBS) at 37° C. under 5% CO2. The cells obtained in this process were transferred to a new culture plate for experiments. The cells used in the experiments were initial cells which had been subcultured 4 to 7 times. In order to activate NQO1, the vascular smooth muscle cells, when the cell mass reached 80 to 90%, were cultured in a medium containing 0.5% fetal bovine serum for 24 hours to keep the cells in the resting state. […]
# Primary cultures of vascular smooth muscle cells were seeded onto 96-well plates, cultured to reach cell mass of 70%, and transferred and again cultured in a medium containing 0.5% fetal bovine serum for 24 hours. […] After further reacting for 4 hours, absorbencies were measured at 450 nm using an ELISA reader to examine the cell proliferation rate.
# In order to determine the effects of Compound 1 on vascular smooth muscle cell proliferation, the cells cultured in a 96-well plate were kept in the resting state, followed by pre-treating them with Compound 1 by varying the concentration, and by reacting them with PDGF for 48 hours. The number of living cells was counted using a WST cell counting kit. […]
# NQO1 = assay: RT-PCR of NQO1 expression in vascular smooth muscle cells; type: cell-based, rat; settings: 0.5 μM, compared with the control group, FIG. 2
# Experimental: A study was conducted to investigate effects of Compound 1 on the expression of NQ01 as in the following. Primary cultures of vascular smooth muscle cells were kept in the resting state and then treated with 0.5 μM of Compound 1. After reacting them for a predetermined period of time, RNA was extracted from the cells using trizol. Thereafter, DNA was amplified using NQO1 primer and then subjected to electrophoresis to confirm the expression level of NQO1.
# AMPK = assay: Western blot of phosphorylated AMPK in vascular smooth muscle cells; type: cell-based, rat; settings: 0.5 μM
# Experimental: (§1) For vascular smooth muscle cell cultivation, vascular smooth muscle cells were isolated from rat aorta and they were primarily cultured. The vascular smooth muscle cells were cultured and grown in a culture solution containing 20% fetal bovine serum (FBS) at 37° C. under 5% CO2. The cells obtained in this process were transferred to a new culture plate for experiments. The cells used in the experiments were initial cells which had been subcultured 4 to 7 times. In order to activate NQO1, the vascular smooth muscle cells, when the cell mass reached 80 to 90%, were cultured in a medium containing 0.5% fetal bovine serum for 24 hours to keep the cells in the resting state. Such cells were treated with the compound of Example 1 (hereinafter, referred to as Compound 1).
# The vascular smooth muscle cells collected after reacting with Compound 1 were lysed in RIPA buffer (50 mM Tris-HCl, 150 mM NaCl, 5 mM EDTA, 1% NP-40, 1 mM PMSF, 1 mM […], and 1 mg/ml protease inhibitor) to isolate whole proteins. The isolated proteins of each sample were quantified. 25 μg of the proteins were mixed with a sample buffer and boiled for 5 minutes. The boiled proteins were cooled and subjected to electrophoresis on a sodium dodecyl sulfate polyacrylamide gel, thereby separating the proteins by their sizes. These proteins were again transferred to PVDF membrane and immunoreacted with antibodies against pAMPK, pACC, p53, p21, CDK and pRb to confirm the protein expression. In addition, in order to verify whether an equal amount of protein was used, the proteins were reacted with anti-β-actin.
# Primary cultures of vascular smooth muscle cells were kept in the resting state and then treated with 0.5 μM of Compound 1. After reacting them for a predetermined period of time, the cells were collected to perform western blot. Quantification was carried out using antibodies specific for phosphorylated AMPK and Acetyl-CoA carboxylase (ACC), and for β-actin. The results were confirmed through three or more repeating experiments.
# [2] = test system: Acetyl-CoA carboxylase (ACC); assay: Western blot of phosphorylated ACC in vascular smooth muscle cells; type: cell-based, rat; settings: 0.5 μM, compared with the control group, FIG. 3
# Experimental: as §1
# The vascular smooth muscle cells collected after reacting with Compound 1 were lysed in RIPA buffer (50 mM Tris-HCl, 150 mM NaCl, 5 mM EDTA, 1% NP-40, 1 mM PMSF, 1 mM […], and 1 mg/ml protease inhibitor) to isolate whole proteins. The isolated proteins of each sample were quantified. 25 μg of the proteins were mixed with a sample buffer and boiled for 5 minutes. […]
# Primary cultures of vascular smooth muscle cells were kept in the resting state and then treated with 0.5 μM of Compound 1. […] Quantification was carried out using antibodies specific for phosphorylated AMPK and Acetyl-CoA carboxylase (ACC), and for β-actin. […]
# p53 = assay: Western blot of p53 expression in vascular smooth muscle cells; type: cell-based, rat; settings: 0.5 μM, FIG. 4A
# Experimental: as §1
# (§2) The vascular smooth muscle cells collected after reacting with Compound 1 were lysed in RIPA buffer (50 mM Tris-HCl, 150 mM NaCl, 5 mM EDTA, 1% NP-40, 1 mM PMSF, 1 mM […], and 1 mg/ml protease inhibitor) to isolate whole proteins. The isolated proteins of each sample were quantified. 25 μg of the proteins were mixed with a sample buffer and boiled for 5 minutes. The boiled proteins were cooled and subjected to electrophoresis on a sodium dodecyl sulfate polyacrylamide gel, thereby separating the proteins by their sizes. […]
# p21 = assay: Western blot of p21 expression in vascular smooth muscle cells; type: cell-based, rat; settings: 0.5 μM, FIG. 4A
# Experimental: as §1, §2
# [3] = test system: cyclin dependent kinase (CDK); assay: Western blot of CDK in vascular smooth muscle cells; type: cell-based, rat; settings: 0.5 μM, FIG. 4B
# Experimental: as §1, §2
# cyclin D = assay: Western blot of cyclin D expression in vascular smooth muscle cells; type: cell-based, rat; settings: 0.5 μM, compared with the control group, FIG. 4B
# Experimental: as §1, §2
# cyclin E = assay: Western blot of cyclin E expression in vascular smooth muscle cells; type: cell-based, rat; settings: 0.5 μM, compared with the control group, FIG. 4B
# Experimental: as §1, §2
# cyclin B = assay: Western blot of cyclin B expression in vascular smooth muscle cells; type: cell-based, rat; settings: 0.5 μM, compared with the control group, FIG. 4B
# Experimental: as §1, §2
# [4] = test system: vascular smooth muscle cells; assay: Cell cycle analysis by FACS (PI staining); type: cell-based, rat; settings: 0.5 μM Compound 1 + PDGF and insulin, 48 hours (PDGF and insulin only: 57%), FIG. 5C
# Experimental: as §1
# FACS was used for cell cycle analysis. The vascular smooth muscle cells incubated in a medium containing 0.5% fetal bovine serum for 24 hours were pretreated with Compound 1 for 2 hours. The cells were treated with PDGF and insulin to induce cell proliferation and reacted for 48 hours. Thereafter, the cells were collected and passed through fixation process, followed by nuclear staining with propidium iodide (PI). Then, the cell cycle was analyzed using FACS.
# Primary cultures of vascular smooth muscle cells were treated with 0.5 μM of Compound 1, followed by reacting with PDGF and insulin for 48 hours. […]
# SD rats = assay: Intimal hyperplasia after balloon angioplasty (H&E staining); type: in vivo, rat; settings: 100 mg/kg in diet
# Experimental: SD rats were used for performing balloon angioplasty. Animals were housed in a breeding room maintained at a constant temperature of 22±2° C. and a 12-h light/dark (UD) cycle. The animals were divided into two groups, i.e., a control group with administration of general diet and an experiment group with administration of 100 mg/kg of Compound 1, having 4 animals in each group. The 4 animals in each group were raised in separate cages for each animal for 4 weeks, during which experiments were carried out. The animals were raised for 2 weeks before performing balloon angioplasty and 2 weeks after performing balloon angioplasty while continuing the dietary intake of the general diet and Compound 1 diet. Thereafter, their aortas were isolated to confirm hyoerplasia by means of H&E (hematoxylin and eosin) staining.
# 14 days after performing balloon angioplasty, the carotid artery was extracted from a rat. After staining the carotid artery by H&E staining, vessel intimal hyperplasia was observed. The results are presented in FIG. 6. a is a control group, b is a vessel intima after performing balloon angioplasty in the general dietary group, c is a vessel intima after performing balloon angioplasty in the 100 mg/kg of Compound 1 administration group, and d is a control group in the 100 mg/kg of Compound 1 administration group, without performing balloon angioplasty.
# rats = assay: Lipogenesis in vessels (Oil Red O staining of aortic valve and abdominal aorta); type: in vivo, rat
# From the text: The animals were killed to isolate their hearts and abdominal aortas, and they were fixed in 4% formalin, respectively. The fixed heart tissue was immersed in an isotonic sucrose solution, and then stored in a freezer by embedding in an OCT compound. Meanwhile, the fixed abdominal aorta was incised lengthwise and prepared such that the internal vessel was exposed. The frozen heart tissue was sectioned into a thickness of 20 μm and attached onto a coating slide, while the abdominal aorta was immersed in an Oil Red O solution to perform Oil Red O staining, and they were observed.
# Rats administered with 25 mg/kg and 50 mg/kg of Compound 1, respectively, for 4 weeks had been killed, and their hearts and abdominal aortas were extracted to prepare frozen sections. The prepared sections were stained with Oil Red O, and a degree of lipid accumulation on the inner vessel wall and aortic valve was compared/observed.
# A (upper part of FIG. 7) is an aortic valve and B (bottom part of FIG. 7) is an abdominal aorta. The experiments were repeated three times to confirm the results.
compound,measurement,setting,value
"CC1(C)CCC2=C(O1)c1ccccc1C(=O)C2=O [Compound 1, β-lapachone]",concentration dependence of the reduction in the number of vascular smooth muscle cells,"[1]; Compound 1 pre-treatment at varying concentration, PDGF 48 hours",concentration-dependent
same,number of vascular smooth muscle cells (living cells),"[1]; PDGF + Compound 1 compared with PDGF only, 48 hours, FIG. 1",significantly low
same,expression level of NQO1,NQO1,significantly higher
same,time after treatment at which phosphorylated AMPK could be observed,AMPK,1 h
same,time for which phosphorylated AMPK lasted,AMPK,6 h
same,AMPK phosphorylation,"AMPK; compared with the control group, FIG. 3",increased
same,ACC phosphorylation,[2],decreased
same,expression level of p53,p53,did not increase largely
same,expression of p21,p21,increased in a great amount
same,CDK activation,[3],activated through phosphorylation
same,expression level of cyclin D,cyclin D,significantly low
same,expression level of cyclin E,cyclin E,significantly low
same,expression level of cyclin B,cyclin B,significantly low
same,G1 phase (percentage of cells),[4],62%
same,intima/media ratio,SD rats; 14 days after balloon angioplasty (general dietary group: 2.5),1
same,intimal hyperplasia in the vessel,"SD rats; 14 days after balloon angioplasty, FIG. 6 c",low rate of intimal hyperplasia
same,lipogenesis in aortic valve and abdominal aorta,"rats; 25 mg/kg and 50 mg/kg for 4 weeks, Oil Red O, FIG. 7",inhibited
same,blood flow level in the heart and abdominal aorta,rats; about 50 mg/kg for 4 weeks,approximately the same as that of the normal rats
